cmk = not defined here
Columns and labels:
rCaspase 3 = biological target: T1, rCaspase 3 (Homo sapiens, UniProt P42574); test: fluorometric caspase-3 enzyme assay (Ac-DEVD-AMC substrate); type: biochemical; conditions: 2 ng rCaspase 3, 10 μM Ac-DEVD-AMC, 37° C., 30 minutes
T1 construct: purchased PharMingen, a Becton division company, San Diego, Calif
T1 sequence (P42574 29-175 limits assumed): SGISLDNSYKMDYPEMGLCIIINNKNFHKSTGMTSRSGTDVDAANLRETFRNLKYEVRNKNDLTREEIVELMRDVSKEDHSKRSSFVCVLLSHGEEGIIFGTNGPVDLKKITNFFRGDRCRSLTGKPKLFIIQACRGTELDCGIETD
Description: Enzyme activity was measured using synthetic peptide substrates attached to a fluorogenic leaving group. Cleavage of the synthetic substrate by the enzyme results in a fluorescent signal which is read in a spectrofluorometer or in a fluorometric microtiter plate reader.
12 concentrations of the testing compound ranged from 30 μM to […] were tested in the enzyme assay. The enzyme reaction was conducted in the presence of 2 ng rCaspase 3 (purchased from PharMingen, a Becton division company, San Diego, Calif.), various concentrations of testing compound, 10 μM caspase 3 substrate Ac-DEVD-AMC (SEQ ID NO:3) (purchased from Quality Controlled Biochemicals, Inc. Hopkinton, Mass.) and caspase buffer (20 mM PIPES, 100 mM NaCl, 10 mM DTT, 1 mM EDTA, 0.1% CHAPS and 10% sucrose, pH 7.2) in a total volume of 100 μl. The enzyme reaction was carried out in a 96-well plate and incubated at 37° C. for 30 minutes. The plate was then read with a fluorescence plate reader (EG&G WALLAG 1420-002) using excitation filter at 355 nm/emission filter at 460 nm. The data was analyzed using GraphPrism software.

[1] = system: dopaminergic neurons grafted to hemiparkinsonian rats; conditions: cited from earlier work
[2] = treatment of the embryonic nigral cell suspension

Row | Molecule | IC50 (rCaspase 3) [nM] | functional recovery ([1]; hemiparkinsonian rats) | DNA fragmentation and apoptosis in transplants [1, 2] | survival of dopaminergic neurons grafted to hemiparkinsonian rats [1, 2]
1 | CC(C)C(NC(=O)OCC1CCCCC1)C(=O)NC(CC(=O)O)C(=O)CF (stereo not drawn) [Cyclohexylmethoxycarbonyl-Val-Asp-fmk] | 72 |  |  | 
2 | Ac-YVAD-cmk (reading uncertain; also: printed as Ac-YVAD-cmk) |  | substantially improved functional recovery | mitigated DNA fragmentation and reduced apoptosis in transplants | increased survival of dopaminergic neurons
3 | CCOC(=O)NC(C(=O)NC(CC(=O)O)C(=O)CF)C(C)C (stereo not drawn) [Ethoxycarbonyl-Val-Asp-fmk] | 58 |  |  | 

From US6716818B2, “Caspase inhibitors and the use thereof” (Cytovia, Inc., priority 1999, dated 2004)
